Molecular target: T1, hROMK1 (Kir1.1) (Homo sapiens, UniProt P48048)
T1 construct: expressed in transfected cells
T1 sequence (P48048 1-391): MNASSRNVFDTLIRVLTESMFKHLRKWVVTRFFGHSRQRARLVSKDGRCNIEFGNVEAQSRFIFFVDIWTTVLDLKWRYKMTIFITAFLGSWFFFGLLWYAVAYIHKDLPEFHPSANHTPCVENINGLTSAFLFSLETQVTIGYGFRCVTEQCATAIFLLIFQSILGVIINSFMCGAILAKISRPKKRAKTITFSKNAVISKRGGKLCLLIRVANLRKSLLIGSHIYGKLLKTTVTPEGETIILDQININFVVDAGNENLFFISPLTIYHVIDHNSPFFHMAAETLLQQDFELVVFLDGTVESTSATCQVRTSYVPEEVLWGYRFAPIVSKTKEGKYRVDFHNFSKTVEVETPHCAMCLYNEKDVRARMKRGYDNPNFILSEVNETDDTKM
Assay: 86Rb+ Efflux Assay
Type: cell-based
Settings: CHO-DHFR- cells stably expressing hROMK1; 35 min incubation
Protocol: Several assays may be used to measure functional inhibition of the ROMK channel by compounds of the instant invention. One assay that was used to test the activity of compounds in the Examples is the functional ^86Rb^+ efflux assay described below, that measures the ability of ROMK to permeate ^86Rb^+, in the absence or presence of test compound. Under control conditions, cells loaded with ^86Rb^+ and incubated in Rb^+-free medium display a time-dependent efflux of the isotope, the rate of which depends on number of functional channels. When cells are incubated in the presence of a channel inhibitor, efflux of ^86Rb^+ is prevented in a concentration-dependent manner, and IC50 values of inhibition by compounds can be accurately determined. This assay has been established with cell lines expressing either human, rat or dog ROMK channels, and can operate in 96- or 384-well format. Importantly, the human, rat, and dog ^86Rb^+ efflux assays can be carried out in the presence of up to 100% serum allowing, therefore, an accurate estimation of the effect of protein binding on the inhibitory activity of compounds of interest. Another ROMK functional assay used to test the activity of compounds in the Examples (described below) makes use of the ability of thallium to permeate through open ROMK channels and increase the fluorescence of a dye previously loaded into the cells. Under control conditions, cells loaded with dye and exposed to thallium-containing medium display a time-dependent increase in fluorescence, the rate of which depends on number of functional channels. When cells are incubated in the presence of a channel inhibitor, the increase in fluorescence is attenuated in a concentration-dependent manner, and IC50 values of inhibition by compounds can be accurately determined. This assay has been established with cell lines expressing either human, or rat ROMK channels, and operates in 384-well format.
CHO-DHFR-cells stably expressing hROMK1 (Kir1.1) are grown at 37° C. in a 10% CO2 humidified incubator in Iscove's Modified Dulbecco's Medium (Gibco 12440) supplemented with HT Supplement, Penicillin/Streptomycin/Glutamine, G418 (500 μg/ml) and 10% FBS. Cells are seeded in Sterile and Tissue Culture Treated Packard CulturPlate White Opaque Microplates at a concentration of 5.0E5-7.0E5 cells/ml-PerkinElmer 6005680 (96-well); Corning 3707 (384 well) in complete media containing 1.5 μCi/ml Rubidium-86. Cells are incubated in 37° C.-10% CO2 incubator overnight. On the day of the experiment, the media is removed and cells are washed with low K assay buffer. ^86Rb^+ efflux is initiated after addition of assay buffer±test compound followed by 35 min incubation at room temperature. ROMK-sensitive component of efflux is defined in the presence of 10 mM BaCl2. Assay buffer is removed and transferred to a plate and cells are solubilized in the presence of SDS. Radioactivity associated with assay and cell plate is determined.
• 1. Remove cell media and wash cells with low K assay buffer (126.9 mM NaCl, 4.6 mM KCl, 2 mM CaCl2, 1 mM MgCl2, 10 mM Hepes/NaOH; pH 7.4) • 200 μl for 96-well plate; 70 μl for 384-well plate • 2. Add assay buffer (121.5 mM NaCl, 10 mM KCl, 2 mM CaCl2, 1 mM MgCl2, 10 mM Hepes/NaOH; pH 7.4)±test compound to cells • 100 μl for 96-well plate; 50 μl for 384-well plate • 3. Incubate at ambient temperature (22-24° C.) for 35 min • 4. Remove assay buffer add it to a 96- or 384-well plate containing Microscint-20 • 96-well Plate: 100 μl buffer, 170 μl MicroScint 20 (for TopCount) • 384-well plate: 20 μl buffer, 50 μl Optiphiase (for MicroLux) • 5. Completely remove remaining assay buffer from cell plate • 6. Solubilize cells with 1% SDS; than add MicroScint or Optiphase • 96-well Plate: 30 μl SDS, 170 μl MicroScint 20 (for TopCount) • 384-well plate: 20 μl SDS, 50 μl Optiphiase (for MicroLux) • 7. Seal both cell and supernatant plates and count Data Calculation— […]

| IC50 | SMILES |
| --- | --- |
| 80 nM | COc1cc([N+](=O)[O-])ccc1CCN1CCN(C2CCc3cc(C#N)ccc3C2)C(=O)C1 (racemic) [Example 9, 6-{4-[2-(2-Methoxy-4-nitrophenyl)ethyl]-2-oxopiperazin-1-yl}-5,6,7,8-tetrahydronaphthalene-2-carbonitrile] |
| 140 nM | O=C1CN(CCc2ccc([N+](=O)[O-])cc2F)CCN1CCc1ccc([N+](=O)[O-])cc1 [Example 12, 4-[2-(2-Fluoro-4-nitrophenyl)ethyl]-1-[2-(4-nitrophenyl)ethyl]piperazin-2-one] |
| 370 nM | COc1cc([N+](=O)[O-])ccc1CCN1CCN(CCc2ccc3nonc3c2)C(=O)C1 [Example 10, 1-[2-(2,1,3-Benzoxadiazol-5-yl)ethyl]-4-[2-(2-methoxy-4-nitrophenyl)ethyl]piperazin-2-one] |
| 420 nM | O=C1OCc2cc(CCN3CCN(CCc4ccc5c(c4)COC5=O)C(=O)C3)ccc21 [Example 29, 1,4-Bis[2-(1-oxo-1,3-dihydro-2-benzofuran-5-yl)ethyl]piperazin-2-one] |
| 210 nM | N#Cc1ccc2c(c1)CCC(N1CCN(CCc3ccc4c(=O)occc4c3)CC1=O)C2 (racemic) [Example 43, 6-{2-Oxo-4-[2-(1-oxo-1H-isochromen-6-yl)ethyl]piperazin-1-yl}-5,6,7,8-tetrahydronaphthalene-2-carbonitrile] |
| 51 nM | N#Cc1ccc2c(c1)CCC(N1CCN(C3CCc4cc(C#N)ccc4C3)C(=O)C1)C2 (stereo not shown) [Example 15, 6,6′-(2-Oxopiperazine-1,4-diyl)di(5,6,7,8-tetrahydronaphthalene-2-carbonitrile)] |
| 140 nM | N#Cc1ccc2c(c1)CCCC2CN1CCN(CCc2ccc3c(c2)COC3=O)CC1=O (racemic) [Example 38, 5-({2-Oxo-4-[2-(1-oxo-1,3-dihydro-2-benzofuran-5-yl)ethyl]piperazin-1-yl}methyl)-5,6,7,8-tetrahydronaphthalene-2-carbonitrile] |
| 390 nM | COC(=O)c1cc([N+](=O)[O-])ccc1CCN1CCN(CCc2ccc([N+](=O)[O-])cc2)C(=O)C1 [Example 7, Methyl 5-nitro-2-(2-{4-[2-(4-nitrophenyl)ethyl]-3-oxopiperazin-1-yl}ethyl)benzoate] |
| 70 nM | N#Cc1ccc2c(c1)CCC(N1CCN([C@@H]3CCc4cc(C#N)ccc4C3)C(=O)C1)C2 (stereo partly drawn) [Example 17, (6R)-6,6′-(2-oxopiperazine-1,4-diyl)-di-(5,6,7,8-tetrahydronaphthalene-2-carbonitrile)] |
| 550 nM | O=C1CN(CCc2ccc([N+](=O)[O-])cc2)CCN1CCc1ccc2nonc2c1 [Example 24, 1-[2-(2,1,3-Benzoxadiazol-5-yl)ethyl]-4-[2-(4-nitrophenyl)ethyl]piperazin-2-one] |
| 910 nM | N#Cc1cc(CCN2CCN(CC(F)c3ccc4c(c3)COC4=O)CC2=O)ccc1F (racemic) [Example 39, 2-Fluoro-5-(2-{4-[2-fluoro-2-(1-oxo-1,3-dihydro-2-benzofuran-5-yl)ethyl]-2-oxopiperazin-1-yl}ethyl)benzonitrile] |
| 240 nM | N#Cc1ccc(CCN2CCN(C3CCc4cc(C#N)ccc4C3)C(=O)C2)cc1 (racemic) [Example 25, 6-{4-[2-(4-Cyanophenyl)ethyl]-2-oxopiperazin-1-yl}-5,6,7,8-tetrahydronaphthalene-2-carbonitrile] |
| 380 nM | N#Cc1ccc2c(c1)CC(CN1CCN(CCc3ccc4c(c3)COC4=O)CC1=O)C2 (racemic) [Example 41, 2-({2-Oxo-4-[2-(1-oxo-1,3-dihydro-2-benzofuran-5-yl)ethyl]piperazin-1-yl}methyl)-2,3-dihydro-1H-indene-5-carbonitrile] |
| 100 nM | N#Cc1ccc2c(c1)CCC(N1CCN([C@H]3CCc4cc(C#N)ccc4C3)C(=O)C1)C2 (stereo partly drawn) [Example 16, (6S)-6,6′-(2-oxopiperazine-1,4-diyl)-di-(5,6,7,8-tetrahydronaphthalene-2-carbonitrile)] |
| 310 nM | Cc1c(CCN2CCN(C3CCc4cc(C#N)ccc4C3)C(=O)C2)ccc2c1COC2=O (racemic) [Example 30, 6-{4-[2-(4-Methyl-1-oxo-1,3-dihydro-2-benzofuran-5-yl)ethyl]-2-oxopiperazin-1-yl}-5,6,7,8-tetrahydronaphthalene-2-carbonitrile] |
| 870 nM | O=C1OCc2cc(CCN3CCN(CCc4ccc5nonc5c4)C(=O)C3)ccc21 [Example 27, 1-[2-(2,1,3-Benzoxadiazol-5-yl)ethyl]-4-[2-(1-oxo-1,3-dihydro-2-benzofuran-5-yl)ethyl]piperazin-2-one] |
| 60 nM | N#Cc1ccc2c(c1)CCC(N1CCN(CCc3ccc([N+](=O)[O-])cc3)CC1=O)C2 (racemic) [Example 23, 6-{4-[2-(4-Nitrophenyl)ethyl]-2-oxopiperazin-1-yl}-5,6,7,8-tetrahydronaphthalene-2-carbonitrile] |
| 40 nM | O=C1CN(CCc2ccc([N+](=O)[O-])c(F)c2)CCN1CCc1ccc([N+](=O)[O-])cc1 [Example 18, 4-[2-(3-Fluoro-4-nitrophenyl)ethyl]-1-[2-(4-nitrophenyl)ethyl]piperazin-2-one] |
| 120 nM | N#Cc1ccc2c(c1)CCC(N1CCN(CCc3ccc([N+](=O)[O-])c(F)c3)CC1=O)C2 (racemic) [Example 21, 6-{4-[2-(3-Fluoro-4-nitrophenyl)ethyl]-2-oxopiperazin-1-yl}-5,6,7,8-tetrahydronaphthalene-2-carbonitrile] |
| 110 nM | N#Cc1ccc(CCN2CCN(CCc3ccc4c(c3)COC4=O)CC2=O)cc1Cl [Example 36, 2-Chloro-4-(2-{2-oxo-4-[2-(1-oxo-1,3-dihydro-2-benzofuran-5-yl)ethyl]piperazin-1-yl}ethyl)benzonitrile] |
| 170 nM | COc1cc(CCN2CCN(CCc3ccc([N+](=O)[O-])cc3)C(=O)C2)ccc1[N+](=O)[O-] [Example 22, 4-[2-(3-Methoxy-4-nitrophenyl)ethyl]-1-[2-(4-nitrophenyl)ethyl]piperazin-2-one] |

| SMILES | IC50 |
| --- | --- |
| Cc1cc([N+](=O)[O-])ccc1CCN1CCN(CCc2ccc([N+](=O)[O-])cc2)C(=O)C1 [Example 19, 4-[2-(2-Methyl-4-nitrophenyl)ethyl]-1-[2-(4-nitrophenyl)ethyl]piperazin-2-one] | 50 nM |

Source: patent US8999990B2, “Inhibitors of the renal outer medullary potassium channel” (Merck Sharp & Dohme Corp., priority 2011, dated 2015)
